Target: h-TRPA1 (Homo sapiens (Human), UniProt O75762)
Test: Dose response calcium flux (FLIPR) assay, ChanTest hTRPA1-CHO stably transfected cell line, cinnamaldehyde agonist
Format: cell-based
Details: for inhibition at 10 µM / inhibition at 1 µM / inhibition at 30 µM / inhibition at 3 µM: % inhibition of the inhibitor control, read-out: Inhibition % @ concentration; for IC50: CHO-K1 Tet-On TRPA1 cells, calcium flux, 100 uM cinnamaldehyde
Procedure: IC50 Determinations of Exemplified Compounds
Dose Response Assay: ChanTest hTRPA1-CHO Stably Transfected Cell Line
To induce expression, tetracycline was added to blasticidin/zeocin-free media at a final concentration of 1 ug/ml. Experiments were run at 24 hours post induction.
Plating Conditions CHOK1/TRPA1 Cells:
Harvested cells with 0.025% trypsin/EDTA.
Resuspended cells in growth media without selection antibiotics.
Measured cell density and diluted to 2.4×10^5 cells/ml in media containing 1 ug/ml Doxycycline Plate 25 ul/well into 384 well black/clear tissue culture-treated plates.
Incubated overnight at 37° C.
Replacement Buffer: Hank's Balanced Salt Solution, 20 mM HEPES along with 0.005% BSA and 2× Probenecid
Dye Loading Buffer: Cal-3 NW Calcium dye was prepared by dissolving the contents of one vial with 500 ml Hank's Balanced Salt Solution containing 20 mM HEPES. • Control compounds for CHOK1/TRPA1 cells:
AP-18, stock 10 mM, prepare 3.5× compound dilution in a Compound Buffer (HBSS/20 mM HEPES/0.005% BSA)—final concentration 10 uM.
Working solution 4.5× (final 100 uM in Compound Buffer: HBSS/20 mM HEPES/0.005% BSA)
Compounds dilutions were prepared from 5 or 10 mM stock (100% DMSO):
Compounds were tested at either 20 μM three folds dilution 11 steps out or 30 μM two folds dilution 11 steps out.
3 μl of diluted compound were transferred into Weidmann 384-well plate in duplicates side-by-side.
Compound plates were resuspended with 100 ul of HBSS/20 mM HEPES/0.005% BSA buffer (Compound Buffer):
Growth media was removed from the cell plates (20 ul) and 20 ul of the Replacement Buffer was added followed by addition of 25 ul of diluted dye. All three steps were performed using a Plate Washer BioTek 407. The plates were then incubated for 30′ at RT.
After incubation, both the cell and compound plates were brought to the FLIPR and 20 ul of the diluted compounds/antagonist/bk were transferred to the cell plates by the FLIPR. Plates were then incubated for 30′ at room temperature. After 30′ incubation, plates were returned to the FLIPR and 20 ul of 4.5× Cinnamaldehyde was added to the cell plates. During the compound addition as well as agonist addition, fluorescence readings were taken simultaneously from all 384 wells of the cell plate every 1.5 seconds. Five readings were taken to establish a stable baseline, then 20 ul of sample was rapidly (30 ul/sec) and simultaneously added to each well of the cell plate. The fluorescence was continuously monitored before, during and after sample/agonist addition for a total elapsed time of 100 seconds (compound addition) and 120 seconds (agonist addition). Responses (increase in peak fluorescence) in each well following agonist addition was determined. The initial fluorescence reading from each well, prior to ligand stimulation, was used a zero baseline value for the data from that well.

Chain of h-TRPA1 (O75762 whole entry): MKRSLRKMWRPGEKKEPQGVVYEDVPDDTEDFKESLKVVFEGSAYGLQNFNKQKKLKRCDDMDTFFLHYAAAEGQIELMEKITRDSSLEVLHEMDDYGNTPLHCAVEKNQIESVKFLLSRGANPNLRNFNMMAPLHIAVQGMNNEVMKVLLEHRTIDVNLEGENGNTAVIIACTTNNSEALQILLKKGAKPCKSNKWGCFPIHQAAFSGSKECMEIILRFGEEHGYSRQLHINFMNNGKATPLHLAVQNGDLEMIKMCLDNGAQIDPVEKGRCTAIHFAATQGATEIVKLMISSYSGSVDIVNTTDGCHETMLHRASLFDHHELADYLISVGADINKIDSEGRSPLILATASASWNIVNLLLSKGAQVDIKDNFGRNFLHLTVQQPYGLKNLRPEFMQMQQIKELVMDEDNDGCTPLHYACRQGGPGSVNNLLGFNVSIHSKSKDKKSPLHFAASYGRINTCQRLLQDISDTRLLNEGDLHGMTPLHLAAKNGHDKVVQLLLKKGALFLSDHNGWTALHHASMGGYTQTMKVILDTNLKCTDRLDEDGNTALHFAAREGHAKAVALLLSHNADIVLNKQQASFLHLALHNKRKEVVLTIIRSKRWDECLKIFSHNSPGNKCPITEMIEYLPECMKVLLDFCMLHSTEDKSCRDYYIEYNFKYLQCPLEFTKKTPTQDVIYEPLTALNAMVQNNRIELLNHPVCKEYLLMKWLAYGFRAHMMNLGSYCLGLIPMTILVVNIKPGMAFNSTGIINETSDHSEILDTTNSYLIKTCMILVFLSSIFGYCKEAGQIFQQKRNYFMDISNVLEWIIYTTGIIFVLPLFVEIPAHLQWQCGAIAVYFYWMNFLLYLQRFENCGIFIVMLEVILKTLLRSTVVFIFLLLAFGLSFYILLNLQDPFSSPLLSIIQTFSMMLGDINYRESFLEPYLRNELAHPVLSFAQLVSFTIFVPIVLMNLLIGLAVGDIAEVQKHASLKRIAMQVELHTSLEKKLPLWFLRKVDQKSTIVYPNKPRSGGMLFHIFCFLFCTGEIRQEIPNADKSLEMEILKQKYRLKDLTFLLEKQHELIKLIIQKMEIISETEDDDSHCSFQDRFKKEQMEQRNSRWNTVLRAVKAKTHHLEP

SMILES	inhibition at 10 µM	IC50	inhibition at 1 µM	inhibition at 30 µM	inhibition at 3 µM
Clc1cccc(-c2nc3ccc(Cl)cn3c2NC2CC2)c1 [Example 7, [6-Chloro-2-(3-chloro-phenyl)-imidazo[1,2-a]pyridin-3-yl]-cyclopropyl-amine]	100%	1590 nM	–	–	–
C#Cc1cccc(-c2nc3ccc(C(F)(F)F)cn3c2NC(C)(C)C)c1 [Example 12, tert-Butyl-[2-(3-ethynyl-phenyl)-6-trifluoromethyl-imidazo[1,2-a]pyridin-3-yl]-amine]	–	110 nM	100%	–	–
CC(C)(C)Nc1c(-c2cc(Cl)cc(Cl)c2)nc2ccc(C(F)(F)F)cn12 [Example 11, tert-Butyl-[2-(3,5-dichloro-phenyl)-6-trifluoromethyl-imidazo[1,2-a]pyridin-3-yl]-amine]	–	1330 nM	–	98%	–
Cc1cc(Br)cn2c(NC(C)(C)C)c(-c3cccc(Cl)c3)nc12 [Example 10, [6-Bromo-2-(3-chloro-phenyl)-8-methyl-imidazo[1,2-a]pyridin-3-yl]-tert-butyl-amine]	100%	221 nM	–	–	–
CC(C)(C)Nc1c(-c2cccc(C#N)c2)nc2ccc(Cl)cn12 [Example 6, 3-(3-tert-Butylamino-6-chloro-imidazo[1,2-a]pyridin-2-yl)-benzonitrile]	90%	2130 nM	–	–	–
CC(C)(C)Nc1c(-c2cccc(C#N)c2)nc2ccc(C(F)(F)F)cn12 [Example 5, 3-(3-tert-Butylamino-6-trifluoromethyl-imidazo[1,2-a]pyridin-2-yl)-benzonitrile]	–	854 nM	–	100%	–
Cc1cc2nc(-c3cccc(Cl)c3)c(NC(C)(C)C)n2cc1Br [Example 9, [6-Bromo-2-(3-chloro-phenyl)-7-methyl-imidazo[1,2-a]pyridin-3-yl]-tert-butyl-amine]	–	229 nM	–	100%	–
CC(C)Nc1c(-c2cccc(Cl)c2)nc2ccc(Br)cn12 [Example 1]	–	132 nM	100%	–	–
CC(C)(C)Nc1c(-c2cccc(Cl)c2)nc2c(Br)cc(Cl)cn12 [Example 8, [8-Bromo-6-chloro-2-(3-chloro-phenyl)-imidazo[1,2-a]pyridin-3-yl]-tert-butyl-amine]	–	1090 nM	–	–	100%
CC(C)Nc1c(-c2cccc(Cl)c2)nc2ccc(C(F)(F)F)cn12 [Example 16, [2-(3-Chloro-phenyl)-6-trifluoromethyl-imidazo[1,2-a]pyridin-3-yl]-isopropyl-amine]	–	143 nM	–	–	100%
CC(C)(C)Nc1c(-c2cccc(Br)c2)nc2ccc(C(F)(F)F)cn12 [Example 17, [2-(3-Bromo-phenyl)-6-trifluoromethyl-imidazo[1,2-a]pyridin-3-yl]-tert-butyl-amine]	100%	264 nM	–	–	–
CC(C)(C)Nc1c(-c2cccc(Cl)c2)nc2cc(C(F)(F)F)ccn12 [Example 13, tert-Butyl-[2-(3-chloro-phenyl)-7-trifluoromethyl-imidazo[1,2-a]pyridin-3-yl]-amine]	–	1120 nM	–	100%	–
C#Cc1cccc(-c2nc3ccc(C(F)(F)F)cn3c2NC(C)C)c1 [Example 15, [2-(3-Ethynyl-phenyl)-6-trifluoromethyl-imidazo[1,2-a]pyridin-3-yl]-isopropyl-amine]	100%	82 nM	–	–	–
CCNc1c(-c2cccc(Cl)c2)nc2ccc(C(F)(F)F)cn12 [Example 14, [2-(3-Chloro-phenyl)-6-trifluoromethyl-imidazo[1,2-a]pyridin-3-yl]-ethyl-amine]	–	2070 nM	–	100%	–
CC(C)(C)Nc1c(-c2cccc(C#N)c2)nc2ccc(F)cn12 [Example 18, 3-(3-tert-Butylamino-6-fluoro-imidazo[1,2-a]pyridin-2-yl)-benzonitrile]	–	20400 nM	–	80.9%	–
CC(C)Nc1c(-c2cccc(Cl)c2)nc2ccc(Cl)cn12 [Example 2, [6-Chloro-2-(3-chloro-phenyl)-imidazo[1,2-a]pyridin-3-yl]-isopropyl-amine]	–	195 nM	–	100%	–
CC(C)(C)Nc1c(-c2cccc(F)c2)nc2ccc(C(F)(F)F)cn12 [Example 4, tert-Butyl-[2-(3-fluoro-phenyl)-6-trifluoromethyl-imidazo[1,2-a]pyridin-3-yl]-amine]	–	1330 nM	–	–	100%
COC(=O)CNc1c(-c2cccc(F)c2)nc2ccc(F)cn12 [Example 3, [6-Fluoro-2-(3-fluoro-phenyl)-imidazo[1,2-a]pyridin-3-ylamino]-acetic acid methyl ester]	–	3300 nM	–	74.3%	–
